“And” between values parts separate entries of the source, which are not always exact repeats. Identical values can stand only once. Like-named read-outs stand apart in the source and are kept apart here.
Key:
[1] = system: A549 non-small cell lung carcinoma xenograft; experiment: A549 non-small cell lung carcinoma xenograft, (−)-gossypol with paclitaxel; conditions: Table 13; combinations of G- with paclitaxel at 7.5 mg/kg
Bcl-XL = molecular target: T1, Bcl-XL (Homo sapiens, UniProt Q07817, DEL45-84); experiment: 15N HSQC NMR binding to Bcl-XL
T1 construct: His-tag (N); made in house
T1 sequence (Q07817 with tags, fused parts or gaps DEL45-84 limits assumed): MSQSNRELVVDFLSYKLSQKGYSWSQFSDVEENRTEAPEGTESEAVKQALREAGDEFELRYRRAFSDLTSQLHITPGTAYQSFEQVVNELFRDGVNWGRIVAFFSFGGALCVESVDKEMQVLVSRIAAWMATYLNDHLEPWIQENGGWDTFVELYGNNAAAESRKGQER

UM-SCC-6 = experiment: 6-day MTT cell growth, UM-SCC-6; type: cell-based, human; conditions: read-out: IC50, inhibition of cell growth
Description: (§1) UM-SCC and human fibroblast cell lines were continuously exposed to varying concentrations of (−)-gossypol in 6-day MTT cell survival assays. Control wells contained media (DMEM) with vehicle alone. For each data point n=5.
(§2) Ten squamous cell carcinoma cell lines established at the University of Michigan (UM-SCC) and three human fibroblast lines were grown in Dulbecco's modified Eagle's medium (DMEM) supplemented with 10% fetal bovine serum. UM-SCC cell lines originated from the larynx (n=2; UM-SCC-12, -23), oral cavity/oropharynx (n=5; UM-SCC-1, -6, -14A, -74B, -81B), hypopharynx (n=1; UM-SCC-22A) and metastases from laryngeal cancers (n=2; UM-SCC-17B, -25). Human fibroblast cell lines originated from surgical specimens (fibroblast cell lines 2 and 3) and neonatal foreskin samples (fibroblast cell line 1).
(§3) Logarithmically growing cell lines were cultured, washed, counted, and plated at 5,000-15,000 cells per well in duplicate wells of 96-well plates and incubated in DMEM overnight. […] The MTT assay measures cell survival based on mitochondrial conversion of MTT from a soluble tetrazolium salt into an insoluble colored formazan precipitate, which is dissolved in dimethyl sulfoxide and quantitated by spectrophotometry. […] Percent absorbance relative to control was plotted as a linear function of drug concentration.

UM-SCC-12 = experiment: Flow cytometric TUNEL apoptosis assay, UM-SCC-12; type: cell-based, human; conditions: 10 μM, 48-hour
Description: (§4) Briefly, FIGS. 24A-24C show apoptosis after (−)-gossypol as measured by a fluorescent flow cytometric TUNEL assay. Open peaks represent BrdU labeling of untreated cells. Shaded peaks indicate BrdU labeling of cell populations following 48-hour treatment with 10 μM (−)-gossypol; FIG. 24A, UM-SCC-cell lines with wild type p53; FIG. 24B, UM-SCC-cell lines with mutant p53; and FIG. 24C normal fibroblast cells.
(§5) Apoptosis of UM-SCC cell lines following (−)-gossypol treatment was quantitatively detected by enzymatic labeling of DNA strand breaks using terminal deoxynucleotidyltransferase (TdT) and Alexa Fluor-BrdUTP, known as the TdT-UTP nick end-labeling (TUNEL) assay by flow cytometry. Cells were exposed to (−)-gossypol for 48 hours, harvested, fixed and TUNEL stained according to the manufacturer's protocol (Molecular Probes Inc., Eugene, Oreg.). Ten thousand cells were analyzed per sample using excitation of Alexa Fluor at 488 nm. Apoptotic index (AI) was defined as percent of apoptotic cells in the treatment population minus that in the vehicle control population.

fibroblast cell lines = experiment: Flow cytometric TUNEL apoptosis assay, fibroblast cell lines; type: cell-based, human; conditions: 10 μM, 48-hour
Description: as §4, §5

UM-SCC-22A = experiment: 6-day MTT cell growth, UM-SCC-22A; type: cell-based, human; conditions: read-out: IC50, inhibition of cell growth
Description: as §1, §2, §3

[2] = molecular target: T2, Bcl-XL and pro-apoptotic protein Bim (Homo sapiens, UniProt Q07817); experiment: Immunoprecipitation of Bcl-XL/Bim heterodimerization in HT-29 cells; type: cell-based; conditions: HT-29, starting at 8 hrs
T2 construct: endogenous in cells; host or cells: HT-29 colon cancer cells
T2 sequence (Q07817 whole entry): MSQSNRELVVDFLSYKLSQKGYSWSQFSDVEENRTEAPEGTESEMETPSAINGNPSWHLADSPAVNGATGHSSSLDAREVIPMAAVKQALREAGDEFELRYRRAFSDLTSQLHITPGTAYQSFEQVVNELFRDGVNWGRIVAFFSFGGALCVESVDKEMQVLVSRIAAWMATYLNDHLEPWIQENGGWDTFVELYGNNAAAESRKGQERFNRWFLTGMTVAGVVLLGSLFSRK
Description: In one embodiment HT-29 colon cancer cells, which express only the Bcl-xL protein, were treated with (−)-gossypol at various doses for 4 hrs, 8 hrs, and 12 hrs. To avoid the detergent effects on the dimerization of Bcl-xL proteins in immunoprecipitation experiments, following the treatment of cells with gossypol, immunoprecipitation of cell lysates was carried out in the Chaps buffer with the anti-Bcl-XL antibody. The Bcl-XL bound proteins were then immunoblotted with anti-Bim antibody. […] There is no change in the total Bcl-XL or Bim protein in the same lysates following the (−)-gossypol treatment.

UM-SCC-23 = experiment: 6-day MTT cell growth, UM-SCC-23; type: cell-based, human; conditions: read-out: IC50, inhibition of cell growth
Description: as §1, §2, §3

UM-SCC-1 = experiment: Flow cytometric TUNEL apoptosis assay, UM-SCC-1; type: cell-based, human; conditions: 10 μM, 48-hour
Description: as §4, §5

UM-SCC-81B = experiment: 6-day MTT cell growth, UM-SCC-81B; type: cell-based, human; conditions: read-out: IC50, inhibition of cell growth
Description: as §1, §2, §3

[3] = system: androgen independent prostate cancer PC-3 xenograft; experiment: PC-3 xenograft, (−)-gossypol alone and with docetaxel (Example 22); conditions: for complete tumor regression, number of mice: combination of (−)-gossypol with docetaxel
fibroblasts = experiment: 6-day MTT cell survival, mean over fibroblasts; type: cell-based, human
[4] = system: PC-3 prostate cancer cell line; experiment: Annexin V-FITC/PI apoptosis with TXT or CDDP, PC-3; type: cell-based, human; conditions: PC-3, 48 hrs
From the text: The present invention is not limited to any mechanism. Indeed, a mechanistic understanding of the invention is unnecessary to practice (make and use) the present compositions and methods.

Bcl-2 = molecular target: T3, Bcl-2 (Homo sapiens, UniProt P10415); experiment: FP binding assay, Flu-Bad-25 peptide and GST-fusion Bcl-2 (FIG. 4, 45); conditions: FIG. 4
T3 construct: purchased Santa Cruz Biotechnology
T3 sequence (P10415 1-205 limits assumed): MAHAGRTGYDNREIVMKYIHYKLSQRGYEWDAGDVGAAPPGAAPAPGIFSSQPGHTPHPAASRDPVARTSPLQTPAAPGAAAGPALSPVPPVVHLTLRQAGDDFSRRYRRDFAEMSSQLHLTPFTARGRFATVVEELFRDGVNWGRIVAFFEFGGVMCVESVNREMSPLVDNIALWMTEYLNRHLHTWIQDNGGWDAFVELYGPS

UM-SCC cell lines = experiment: Flow cytometric TUNEL apoptosis assay, UM-SCC cell lines grouped by p53 status; type: cell-based, human; conditions: 48-hour
UM-SCC-17B = experiment: 6-day MTT cell growth, UM-SCC-17B; type: cell-based, human; conditions: read-out: IC50, inhibition of cell growth
Description: as §1, §2, §3

[5] = Table 17 (content identical to Table 18)
[6] = Table 18, PC-3 xenograft, (−)-gossypol 10 mg/kg orally for 4 weeks, radiation 2 Gy 5 times/week
[7] = (−)-gossypol 7.5 mg/kg p.o. daily 4 weeks, docetaxel 7.5 mg/kg once a week 3 weeks
[8] = 8 Gy radiation with 4 μM gossypol
[9] = 8 Gy radiation with 5 μM gossypol

`Cc1cc2c(C(C)C)c(O)c(O)c(C=O)c2c(O)c1-c1c(C)cc2c(C(C)C)c(O)c(O)c(C=O)c2c1O` [(−)-gossypol] was tested, and the “tumor growth inhibition compared with vehicle control” value [1] was 76% tumor growth inhibition as, the “binding to Bcl-XL by NMR” value (Bcl-XL) was “bind to the BH3 binding groove in Bcl-XL” and the IC50 (UM-SCC-6) was 11 µM. The “apoptotic index (AI)” value (UM-SCC-12) was 27.2%, the induction of apoptosis (fibroblast cell lines) was “no induction of apoptosis” and the IC50 (UM-SCC-22A) was 3 µM. For the same molecule, the “binding of Bcl-XL and Bim in intact cells” value [2] was “dose-dependent decrease in the binding of Bcl-XL and pro-apoptotic protein Bim”, the IC50 (UM-SCC-23) was 1.5 µM and the “toxicity by bodyweight measurements” value (PC-3 xenograft; (−)-gossypol 10 mg/kg with or without radiation) was “no significant toxicity”. For the same molecule, the antitumor effect (PC-3 xenograft; (−)-gossypol alone, 10 mg/kg oral, 4 weeks) was “minimal antitumor effect”, the “tumor growth inhibition compared with vehicle control, day 39” value (PC-3 xenograft; Table 14, (−)-gossypol 10 mg/kg p.o. in combination with radiation 2 Gy per day, total 30 Gy) was “achieved 93% tumor growth” and the “tumor growth inhibition, day 39” value (PC-3 xenograft; Table 14, PC-3 flank xenografts (~150 mm^3 at start), (−)-gossypol 10 mg/kg p.o. 5 times q week for 4 weeks, alone, not significant) was “regimen (about 20%, P = 0.3 or 0.7,”. For the same molecule, the “Tumor Growth Delay (T − C Days)” value (PC-3 xenograft; [5]) was 0 days, the “Tumor Growth Inhibition (T/C %)” value (PC-3 xenograft; [5]) was 98.6% and the “Tumor Growth Delay (T − C Days)” value (PC-3 xenograft; [6]) was 0 days. For the same molecule, the “Tumor Growth Inhibition (T/C %)” value (PC-3 xenograft; [6]) was 98.6%, the “apoptotic index (AI)” value (UM-SCC-1) was 90.1% and the IC50 (UM-SCC-81B) was 4 µM. The “Complete tumor regression/Total” value [3, 7] was 2 out of 12 and 2/12, the Percent regression [3, 7] was 17% and the “tumor growth inhibition compared with vehicle control” value ([3]; Table 9, (−)-gossypol 15 mg/kg p.o. in combination with docetaxel 7.5 mg/kg i.v.) was 84% tumor growth inhibition as. For the same molecule, the “tumor growth inhibition on day 42” value ([3]; Table 9, PC-3 flank xenografts (~100 mm^3 at start), NCr-nu nude mouse, 15 mg/kg daily p.o., alone) was “growth inhibition (52% on day 42,”, the “complete tumor regression, number of mice” value ([3]; Table 9, out of 5 mice) was “complete tumor regression in 3 out mice” and the “tumor inhibition compared with vehicle control” value ([3]; Table 10, (−)-gossypol in combination with docetaxel 7.5 mg/kg i.v.) was “at 7.5 mg/kg achieved 89.9% tumor”. The “tumor growth inhibition on day 56 compared to vehicle controls” value ([3]; Table 10, PC-3 flank xenografts (~120 mm^3 at start), NCr-nu nude mouse, daily p.o. for 28 days, alone (racemic 15 mg/kg)) was “antitumor activity (60% on day 56,”, the “complete tumor regression, number of mice” value ([3]; Table 10, out of 8 mice) was “complete tumor regression in 5 out mice” and the IC50 (fibroblasts) was 20.3 ± 9.2 µM. For the same molecule, the “effect on activity of docetaxel and cisplatin” value [4] was “enhanced the activities of docetaxel and cisplatin (CDDP) in inhibiting cell growth and inducing apoptosis”, the “Combination Index (CI)” value (PC-3 cells; [8]) was 0.34 and the “Dose Reduction Index (DRI)” value (PC-3 cells; [8]) was 4.3. The “Combination Index (CI)” value (PC-3 cells; [9]) was 0.27, the “Dose Reduction Index (DRI)” value (PC-3 cells; [9]) was 6.1 and the “reduction in colony formation from controls” value (PC-3 cells; with 6 Gy X-ray) was 10 fold. The “reduction in colony formation from controls” value (PC-3 cells; with 8 Gy X-ray) was 20 fold, the “inhibition of binding between Bid BH3 peptide and Bcl-2” value (Bcl-2) was “directly inhibit binding between Bid BH3 peptide and Bcl-2” and the mean apoptotic index (UM-SCC cell lines; two cell lines with mutant p53, 10 μM) was 20.7%±9.3. For the same molecule, the “mean apoptotic index (AI)” value (UM-SCC cell lines; two wild-type p53 tumor cell lines, 10 μM) was 85.2%±6.9 and the IC50 (UM-SCC-17B) was 5 µM.

From US8163805B2, “Small molecule antagonists of Bcl-2 family proteins” (The Regents of the University of Michigan, priority 2001, dated 2012)
